# Laboratory results: US8609417B2, “Methods and compositions for stem cell cultures” (The Regents of the University of California, priority 2009, dated 2013)
# Entries after “also recorded” stand apart in the source; their conditions may differ.
# Tests used:
# [1] = system: hiPS cells; experiment: Cell viability assay under adherence conditions (trypan blue live cell counting); assay type: cell-based, human
# Experimental: hES or hiPS cells were plated at 1×10^5 cells/well on 12-well plates coated with PDL or Matrigel in mTeSR in the presence or absence of blebbistatin or Y-27632 at various concentrations in triplicates. DMSO (solvent for blebbistatin) was also added in the control condition and found to have no effect on viability. For mES cells, cells were plated under the same condition except for the use of gelatin coating and mES medium. After 24 h, cells were harvested, trypsinized to single cells, and counted by hemocytometer. Cell counting was performed independently by two researchers to confirm the consistency. The same samples were used for TUNEL assay immediately after taking a small fraction of the sample for cell counting.
# [2] = system: hiPS cells; experiment: Cell viability under suspension culture; assay type: cell-based, human; details: hPS cells in suspension, 2 days, various concentrations
# Experimental: For the evaluation of cell viability under suspension culture, hES or hiPS cells were plated at 5×10^5 in non-tissue culture-treated 6-well plates with non-conditioned standard hESm containing blebbistatin or Y-27632 at different concentrations in triplicates. After 2 days, cells were harvested with trypsinization and extensive trituration by pipetting, and the number of live cells was manually counted by using hemocytometer and trypan blue staining. The cell survival ratio (%) represents the ratio of the number of live cells to the number of cells plated. The same samples were subjected to TUNEL assay for side by side comparison with the data from cell viability assay.
# [3] = system: hES cells; experiment: Cell-cell contact of hES cells (morphology, cell contact index); assay type: cell-based, human; details: hES cells grown on Matrigel
# Experimental: Rock and myosin II regulate cell-cell interactions in hES cells. To test whether the observed function of RRM signaling in cell-cell contacts in mES cells is conserved in hES cells, H1 cells grown under the feeder-free condition with Matrigel™ and conditioned medium (CM) (FIG. 3A) were treated with C3 exoenzyme. […] Rock-inhibitor treatment also led to cell adhesion defects although it required a higher concentration (20 μM) than that (10 μM) for mES cells (FIG. 3C). Myosin IIA and IIB were colocalized with cell-cell borders in hES cells, which indicates their potential role in cell-cell adhesions (FIG. 3D).
# [4] = system: hiPS cells; experiment: Cell growth assay (population doubling time); assay type: cell-based, human; details: hiPS cells on PDL in mTeSR, compound at 5 μM
# Experimental: For the cell growth assay, hiPS or hES cells were plated at 2.5×10^4 cells/cm^2 on plates coated with PDL or Matrigel in mTeSR in the presence of blebbistatin at 5 μM or Y-27632 at 5 μM (PDL) or in the absence of compounds (Matrigel). Cells were harvested at the indicated time points, stained with trypan blue, and counted by the hemocytometer.
# [5] = system: mES cells; experiment: Cell-cell contact of mES cells (morphology, cell contact index); assay type: cell-based, mouse
# Source text: Rho and Rho-associated kinase (Rock) play a role in regulation of cell-cell interactions in pluripotent stem cells. In order to further explore the core mechanism underlying cell-cell adhesions, principle regulators downstream of Rock were examined. Based on functional prescreening non-muscle myosin II was identified as an effector by siRNA-mediated loss of function analysis. Non-muscle Myosin II (myosin II), the two-headed conventional myosin, consists of non-muscle myosin II heavy chain (NMHC) dimers and two sets of myosin light chains (MLCs). […] Among them, all the genes except IIC are expressed in pluripotent stem cells whereas differentiated cells express all three isoforms. […] The specificity and levels of knockdown of the target genes by each siRNA were confirmed by quantitative RT-PCR (QPCR) (FIG. 2). Myosin phosphatase target subunit 1 (MYPT1), a major downstream target of Rock that negatively regulates myosin function through […] of myosin regulatory light chain (MRLC) was examined. MYPT1 was exclusively localized to cell-cell contact sites in mES cells (FIG. 1B). If Rock controls the myosin function through inhibition of MYPT1, depletion of MYPT1 would rescue the intrinsic cell-cell interactions from the robust effect of Y27632 (FIG. 1C).
smiles,measurement,setting,value
O=S(=O)(c1cccc2c(I)cccc12)N1CCCNCC1 [ML-7],Effect on cell survival,"[1]; hiPS cells on PDL-coated dishes, different concentrations",No significant increase in cell survival
same,Effect on survival in suspension culture,[2],did not show a significant effect on survival; also recorded: No difference in the survival rate
C[C@@H](N)[C@H]1CC[C@H](C(=O)Nc2ccncc2)CC1 [Y-27632],Concentration that disassembled cell-cell junctions,[3],20 µM
same,Population doubling time,[4],~32.2 h
same,Number of viable cells,"[1]; hiPS cells on PDL, 10 μM, 24 h after plating 1×10^5 cells/well, n=3",7.2±1.1×10^4 cells
same,Concentration that disassembled cell-cell junctions,[5],10 µM
